Source: paper PMC9320114 (Molecules, 2022)
Read-outs that look alike come from different tables or passages of the source.

Experiments:
[1] = target: human butyrylcholinesterase (hBChE) (Homo sapiens, UniProt P06276); test: biochemical; assay type: biochemical; conditions: for IC50: read-out: hBChE IC50; for remaining activity at 10 µM: read-out: hBChE RA (%)
Description: (§1) Enzyme solutions were prepared by diluting the concentrated enzyme stock solutions (4.6 mg/mL in 10 mM MES-NaOH buffer, pH 6.5) in a sodium phosphate-buffered solution (0.1 M, pH 8.0). […] The final organic solvent (DMSO) content was always 1% (v/v). Reactions were initiated by adding the substrate to the enzyme and inhibitor, which were preincubated for 5 min. […] To determine the blank value (b), the enzyme solution was replaced by a phosphate-buffered solution. The initial velocity (v) was calculated from the slope of the linear trend obtained, with each measurement performed in triplicate. The inhibitory potencies were expressed as RA=(vi − b)/(vo − b), where vi is the velocity in the presence of the test compounds and vo is the control velocity in the presence of DMSO. Seven different concentrations of each compound were used for the IC50 measurements. IC50 values were obtained by plotting the residual enzyme activities against the applied inhibitor concentrations, fitting the experimental data to the 4-parameter Hill equation:(1) Y=Bottom+(Top−Bottom)/1+10^((LogIC50−X)×Hill Slope) where X is the logarithm of the inhibitor concentration, and Y is the residual activity. GraphPad Prism 8.2.0 (GraphPad Software, San Diego, CA, USA) was used for the fitting procedure.

[2] = target: T1, murine acetylcholinesterase (mAChE) (Mus musculus, UniProt P21836); test: biochemical; assay type: biochemical; conditions: for remaining activity at 10 µM: residual activity at 10 µM, read-out: mAChE RA (%)
T1 sequence (P21836 32-614): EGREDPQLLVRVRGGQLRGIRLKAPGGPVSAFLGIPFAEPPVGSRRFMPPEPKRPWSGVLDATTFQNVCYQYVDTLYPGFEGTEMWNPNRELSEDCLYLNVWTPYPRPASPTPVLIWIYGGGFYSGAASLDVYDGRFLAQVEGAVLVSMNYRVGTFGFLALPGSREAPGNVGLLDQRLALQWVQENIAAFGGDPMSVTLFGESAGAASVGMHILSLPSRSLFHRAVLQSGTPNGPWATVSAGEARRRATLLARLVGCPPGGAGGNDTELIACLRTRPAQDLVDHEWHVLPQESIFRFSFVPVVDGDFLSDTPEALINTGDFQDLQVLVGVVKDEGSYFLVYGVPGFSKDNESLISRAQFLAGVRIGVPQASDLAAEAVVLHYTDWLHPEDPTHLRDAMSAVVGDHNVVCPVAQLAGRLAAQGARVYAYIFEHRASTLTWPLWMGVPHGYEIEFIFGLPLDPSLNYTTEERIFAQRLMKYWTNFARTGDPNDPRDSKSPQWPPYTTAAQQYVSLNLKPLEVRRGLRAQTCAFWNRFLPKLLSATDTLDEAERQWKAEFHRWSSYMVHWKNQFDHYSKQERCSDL
Description: as §1

MurA = MurA (Escherichia coli, UniProt P0A749); test: Inhibition of MurA, colorimetric malachite green method; assay type: biochemical, bacterial; conditions: Table 1; for IC50: read-out: MurA IC50; for MurA RA (%): residual activity at 100 µM
Sequence of MurA (P0A749 whole entry): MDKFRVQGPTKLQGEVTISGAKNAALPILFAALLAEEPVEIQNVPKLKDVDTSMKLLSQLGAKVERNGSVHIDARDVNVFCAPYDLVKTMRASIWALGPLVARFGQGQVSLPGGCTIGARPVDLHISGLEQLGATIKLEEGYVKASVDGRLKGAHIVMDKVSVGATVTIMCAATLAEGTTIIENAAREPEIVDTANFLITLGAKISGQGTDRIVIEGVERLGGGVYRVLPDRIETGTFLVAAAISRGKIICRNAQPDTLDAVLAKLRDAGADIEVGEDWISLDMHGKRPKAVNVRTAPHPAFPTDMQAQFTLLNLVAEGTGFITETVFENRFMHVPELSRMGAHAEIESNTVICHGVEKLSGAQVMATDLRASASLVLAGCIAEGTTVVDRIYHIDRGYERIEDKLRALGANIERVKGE
Description: Inhibition of Mur enzymes was monitored with the colorimetric malachite green method, which measured orthophosphate formed during reaction. The mixtures with a final volume of 50 µL contained:
MurA: 50 mM HEPES-NaOH, pH 7.8, 0.005% Triton X-114, 200 µM uridine-diphosphate-N-acetylglucosamine, 100 µM phosphoenolpyruvate, purified MurA, and 50 or 100 µM of each compound tested.
All compounds were soluble in the assay mixtures containing 5% DMSO (v/v). After incubation for 15 min (20 min for DdlB) at 37 °C, the enzyme reaction was terminated by addition of Biomol® reagent (100 µL) and absorbance was measured after 5 min at 650 nm (Synergy™ H4 microplate reader; BioTek Instruments, Inc., BioTek Gen5 Data Analysis Software, version 2.9, Santa Clara, CA, USA). All experiments were performed in duplicate.

hMAO-B = target: T2, hMAO-B (Homo sapiens, UniProt P27338); test: biochemical; conditions: residual activity at 10 µM; Table 3
T2 construct: purchased Sigma Aldrich; host or cells: BTI-TN-5B1-4 baculovirus-infected insect cells
T2 sequence (P27338 1-520): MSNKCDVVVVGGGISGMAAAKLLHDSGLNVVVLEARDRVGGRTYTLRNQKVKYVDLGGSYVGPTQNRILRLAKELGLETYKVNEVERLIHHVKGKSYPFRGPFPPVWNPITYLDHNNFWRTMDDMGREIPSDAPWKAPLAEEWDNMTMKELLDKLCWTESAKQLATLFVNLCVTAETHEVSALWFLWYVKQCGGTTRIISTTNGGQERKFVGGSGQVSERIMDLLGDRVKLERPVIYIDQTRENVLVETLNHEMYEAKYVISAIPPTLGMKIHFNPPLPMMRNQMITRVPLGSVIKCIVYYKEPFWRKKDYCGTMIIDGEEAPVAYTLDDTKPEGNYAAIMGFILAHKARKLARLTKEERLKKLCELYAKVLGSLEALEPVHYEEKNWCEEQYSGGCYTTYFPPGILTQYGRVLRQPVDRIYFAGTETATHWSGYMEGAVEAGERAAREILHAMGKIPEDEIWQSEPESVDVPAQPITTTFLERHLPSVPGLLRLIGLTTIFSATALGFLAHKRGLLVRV
Excerpt: The effects of the compounds on hMAO-A and hMAO-B were investigated using a fluorimetric assay, following a method previously described in the literature. Recombinant human microsomal hMAO enzymes expressed in BTI-TN-5B1-4 baculovirus-infected insect cells, horseradish peroxidase (HRP, type II, lyophilized powder), and p-tyramine hydrochloride were purchased from Sigma Aldrich. 10-Acetyl-3,7-dihydroxyphenoxazine (Amplex Red reagent) was synthesized as described in the literature.
After preincubation, the reaction was started by adding final concentrations of 200 µM Amplex Red reagent, 2 U/mL HRP, and 1 mM p-tyramine hydrochloride. Resorufin production was quantified based on the fluorescence produced (λex = 530 nm; λem = 590 nm) at 37 °C over a 20 min period. For the control experiments, DMSO was used instead of appropriate dilutions of the compounds in DMSO. For the determination of blank (b), the enzyme solution was replaced by a phosphate-buffered solution. Initial velocities were calculated from the obtained trend, with each measurement performed in duplicate. Specific fluorescence emission to determine the final results was calculated after subtracting the blank activity (b). Inhibitory potencies were expressed as RAs, and IC50 values were calculated as described in the section “Inhibition of hBChE and mAChE” above.

[3] = residual activity at 10 µM, Table 4

Sequence of human butyrylcholinesterase (hBChE) (P06276 29-602): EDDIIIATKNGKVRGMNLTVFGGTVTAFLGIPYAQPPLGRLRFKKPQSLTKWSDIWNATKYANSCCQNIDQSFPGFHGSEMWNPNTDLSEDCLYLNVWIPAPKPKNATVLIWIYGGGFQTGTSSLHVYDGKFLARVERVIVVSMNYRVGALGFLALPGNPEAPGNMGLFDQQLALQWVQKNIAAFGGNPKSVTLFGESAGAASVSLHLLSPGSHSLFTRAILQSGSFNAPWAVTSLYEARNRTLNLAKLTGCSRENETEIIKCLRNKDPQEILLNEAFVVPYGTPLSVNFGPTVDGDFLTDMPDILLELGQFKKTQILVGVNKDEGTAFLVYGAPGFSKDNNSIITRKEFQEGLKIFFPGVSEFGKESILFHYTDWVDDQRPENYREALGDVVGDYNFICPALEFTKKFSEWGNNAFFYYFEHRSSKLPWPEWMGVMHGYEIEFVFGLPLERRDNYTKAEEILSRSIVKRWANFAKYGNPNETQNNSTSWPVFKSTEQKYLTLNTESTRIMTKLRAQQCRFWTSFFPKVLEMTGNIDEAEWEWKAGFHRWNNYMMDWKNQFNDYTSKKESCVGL

| Compound | IC50 ([1]; Table 4, IC50 ± SEM) [nM] | remaining activity at 10 µM [1, 3] [%] | remaining activity at 10 µM ([2]; Table 4) [%] | MurA RA (%) (MurA) | hBChE RA (%) [1] [%] | mAChE RA (%) [2] [%] | also measured |
| --- | --- | --- | --- | --- | --- | --- | --- |
| N#Cc1ccc2[nH]cc(CCCCN3CC=C(c4ccc5c(c4)OCC5)CC3)c2c1 [Compound 35] | 2900 ± 100 | 31 | 59 | – | – | – | – |
| COC(=O)c1cc(N(Cc2ccc(C#Cc3ccc(C(C)(C)C)cc3)cc2)CC2CC2)ccc1F [Compound 9] | – | – | – | 10 | 80 | – | IC50 (MurA; IC50 ± SEM): 91000 ± 13000 nM; IC50 [2]: 1800 ± 450 nM |
| CCCCCCN(Cc1ccc(C#Cc2ccc(C(C)(C)C)cc2)cc1)c1ccc(F)c(C(=O)O)c1 [Compound 8] | – | – | – | 0 | 71 | 22 | IC50 (MurA; IC50 ± SEM): 14000 ± 5000 nM; IC50 [2]: 368 ± 52 nM |
| Nc1c2c(nc3ccccc13)CCCC2 [Tacrine, reference compound] | – | – | – | – | – | – | hBChE RA (%) ([1]; residual activity at 10 µM, Table 1): 0% |
| CCCCCCN(Cc1ccc(C#Cc2ccc(CCCC)cc2)cc1)c1ccc(F)c(C(=O)OC)c1 [Compound 7] | – | – | – | 100 | 45 | 19 | IC50 [1]: ~19700 nM; IC50 [2]: 682 ± 86 nM |
| Oc1ccc2c(CCCCN3CC=C(c4ccccc4)CC3)c[nH]c2c1 [Compound 33] | 267 ± 1 | 3 | 61 | – | – | – | – |
| CCCCc1ccc(C#Cc2ccc(CN(C(=O)CC(C)(C)C)c3ccc(F)c(C(=O)O)c3)cc2)cc1 [Compound 1] | – | – | – | 0 | 100 | 2 | MurA IC50 (µM) (MurA; IC50 ± SEM): No clear dose-dependency; IC50 [2]: 1200 ± 50 nM |
| C1=C(c2cccc3ccccc23)CCN(CCCCc2c[nH]c3ccccc23)C1 [Compound 30] | 400 ± 57 | 6 | 76 | – | – | – | – |
| CCCCc1ccc(C#Cc2ccc(CN(CC3CC3)c3ccc(O)c(C(=O)O)c3)cc2)cc1 [Compound 5] | – | – | – | 0 | 16 | 2 | IC50 (MurA; IC50 ± SEM): 7000 ± 3000 nM; IC50 [1]: 2400 ± 200 nM; IC50 [2]: 1100 ± 100 nM |
| CC(C)(C)CCN(Cc1ccc(C#Cc2ccc(F)cc2)cc1)C(=O)c1ccc(O)c(C(=O)O)c1 [Compound 6] | – | – | – | 0 | 95 | 13 | IC50 (MurA; IC50 ± SEM): 27000 ± 7000 nM; IC50 [2]: 4800 ± 1300 nM |
| Fc1ccc2[nH]cc(CCCCN3CC=C(c4ccccc4)CC3)c2c1 [Compound 39] | 70 ± 5 | 0 | 47 | – | – | – | IC50 ([2]; Table 4, IC50 ± SEM): 15000 ± 5000 nM |
| O=C(O)c1ccc2[nH]cc(CCCCN3CCc4c(c(=O)oc5ccccc45)C3)c2c1 [Compound 36] | – | 97 | 78 | – | – | – | – |
| Cc1ccc(C#Cc2ccc(CN(CCC(C)(C)C)c3ccc(O)c(C(=O)O)c3)cc2)cc1 [Compound 4] | – | – | – | 14 | 100 | 100 | IC50 (MurA; IC50 ± SEM): 102000 ± 15000 nM |
| OCC1=C(c2ccc(F)cc2)CCN(CCCCc2c[nH]c3ccccc23)C1 [Compound 34] | 493 ± 88 | 7 | 31 | – | – | – | IC50 ([2]; Table 4, IC50 ± SEM): 7000 ± 1000 nM |
| CC(C)(C)CCN(Cc1ccc(C#Cc2ccc(F)cc2)cc1)C(=O)c1ccc(C(=O)O)cc1 [Compound 3] | – | – | – | 58 | 100 | 100 | – |
| O=C(O)c1cccc2[nH]cc(CCCCN3CC=C(c4ccccc4)CC3)c12 [Compound 32] | 14500 ± 2200 | 49 | 71 | – | – | – | – |
| C[C@H](NCc1ccc(OCc2cccc(F)c2)cc1)C(N)=O [Safinamide, reference compound] | – | – | – | – | – | – | hMAO-B RA [%] (hMAO-B): 0% |
| COc1ccc2[nH]cc(CCCCN3CCc4c([nH]c5ccc(OC)cc45)C3)c2c1 [Compound 37] | 2300 ± 100 | 23 | 88 | – | – | – | – |
| CC(C)c1ccc2[nH]cc(CCCCN3CC=C(c4ccccc4)CC3)c2c1 [Compound 31] | 59.9 ± 5.5 | 0 | 44 | – | – | – | IC50 ([2]; Table 4, IC50 ± SEM): 14000 ± 4000 nM |
| C[C@@H]1O[C@@H]1P(=O)(O)O [Fosfomycin, reference compound] | – | – | – | 0 | – | – | IC50 (MurA; IC50 ± SEM): 240 ± 20 nM |
| CC(C)(C)c1ccc(C#Cc2ccc(CN(CC3CC3)c3ccc(O)c(C(=O)O)c3)cc2)cc1 [Compound 2] | – | – | – | 64 | 100 | 99 | – |
| COC(=O)CNC(=O)c1ccc2[nH]cc(CCCCN3CC=C(c4ccccc4)CC3)c2c1 [Compound 38] | 319 ± 51 | 4 | 100 | – | – | – | – |
